The structures appear in SMILES notation.

One experiment addresses SARS-CoV-2 main protease (M^pro) (Severe acute respiratory syndrome coronavirus 2, UniProt P0DTD1). The experiment can be described thus: Rapid-Fire MS Biochemical Assay measuring Mpro activity (5 nM Mpro). The conditions noted are these: Rapid-Fire Assay IC50, Table 1B, Mpro inhibition, 5 μM substrate peptide, 120 min.
As to `N#C[C@@H]1CN(C2CN(S(=O)(=O)C3CC3)C2)C(=O)N1c1cncc2ccccc12` (single isomer, unassigned) [Compound 131b], the IC50 (usually the point on the concentration scale where inhibition reaches its midpoint) was above 1000 nM.
The compound `N#C[C@H]1CN(C2CN(S(=O)(=O)C3CC3)C2)C(=O)N1c1cncc2ccccc12` (single isomer, unassigned) [Compound 131a] returned an IC50 of 20 to 200 nM.
As to `N#Cc1ccc(N2C[C@@H](C#N)N(c3cncc4ccccc34)C2=O)cc1F` (single isomer, unassigned) [Compound 73b], the half-maximal inhibitory concentration (IC50) is 200 to 1000 nM.

Staying with this experiment, now noted: Table 1B, Mpro inhibition, 5 μM substrate peptide, 120 min, read-out: Rapid-Fire Assay IC50.
`COc1cc(C#N)ccc1N1C[C@H](C#N)N(c2cncc3ccccc23)C1=O` (single isomer, unassigned) [Compound 19a]: the IC50 is below 20 nM.
On the same count and under the same terms, in the case of `Cc1cnc(C(F)(F)F)cc1N1C[C@@H](C#N)N(c2cncc3ccccc23)C1=O` (single isomer, unassigned) [Compound 70b] it was above 1000 nM.
The same measure, in the same setting: in the case of `CC(C)[C@H]1C[C@@H](N2C[C@@H](C#N)N(c3cncc4ccccc34)C2=O)C1` [Compound 123c, (S)-1-((1s,3R)-3-isopropylcyclobutyl)-3-(isoquinolin-4-yl)-2-oxoimidazolidine-4-carbonitrile] it was above 1000 nM; in that of `N#C[C@@H]1CN(c2ccc(OC(F)(F)F)cc2)C(=O)N1c1cncc2ccccc12` (single isomer, unassigned) [Compound 91b], above 1000 nM.
As to `N#C[C@H]1CN(c2cc(OC(F)F)ccc2F)C(=O)N1c1cncc2ccccc12` (single isomer, unassigned) [Compound 59a], the IC50 lay in the range of 20 to 200 nM.
As for `N#C[C@@H]1CN(c2cnc(C(F)(F)F)cn2)C(=O)N1c1cncc2ccccc12` (single isomer, unassigned) [Compound 32b], the IC50 is above 1000 nM.
On to `N#C[C@H]1CN(c2cccc(OC(F)(F)F)c2)C(=O)N1c1cncc2ccccc12` (single isomer, unassigned) [Compound 92a], for which the half-inhibitory concentration (IC50) is below 20 nM.
On to `COc1ccc(C(F)(F)F)cc1N1C[C@H](C#N)N(c2cncc3ccc(S(C)(=O)=O)cc23)C1=O` (single isomer, unassigned) [Compound 38a], for which the 50% inhibitory concentration (IC50) was below 20 nM.
The same measure, in the same setting: in the case of `COc1cc(C#N)ccc1N1C[C@@H](C#N)N(c2cncc3ccccc23)C1=O` (single isomer, unassigned) [Compound 19b] it was above 1000 nM.
On to `N#C[C@@H]1CN(c2cc(F)cc(F)c2)C(=O)N1c1cncc2ccccc12` (single isomer, unassigned) [Compound 110b], for which the IC50 lay in the range of 200 to 1000 nM.
Consider `N#C[C@H]1CN([C@H]2C[C@H](C3CC3)C2)C(=O)N1c1cncc2ccccc12` [Compound 124b, (R)-1-((1r,3R)-3-cyclopropylcyclobutyl)-3-(isoquinolin-4-yl)-2-oxoimidazolidine-4-carbonitrile], for which the IC50 was below 20 nM.
As for `N#C[C@H]1CN(c2ccc(C(F)F)cc2)C(=O)N1c1cncc2ccccc12` (single isomer, unassigned) [Compound 108a], the 50% inhibitory concentration (IC50) is below 20 nM.
For the compound `N#C[C@@H]1CN(c2ncc(C(F)(F)F)[nH]2)C(=O)N1c1cncc2ccccc12` (single isomer, unassigned) [Compound 68b], the IC50 was above 1000 nM.
As for `Cc1cnc(C(F)(F)F)cc1N1C[C@H](C#N)N(c2cncc3ccccc23)C1=O` (single isomer, unassigned) [Compound 70a], the concentration for half-maximal inhibition (IC50) is below 20 nM.
For the compound `Cc1ccc(C(F)(F)F)cc1N1C[C@H](C#N)N(c2cncc3ccccc23)C1=O` (single isomer, unassigned) [Compound 24a], the 50% inhibitory concentration (IC50) is below 20 nM.
`N#C[C@H]1CN(C2CC3(CC3)C2)C(=O)N1c1cncc2ccccc12` (single isomer, unassigned) [Compound 125a]: the IC50 was below 20 nM.
On the same count and under the same terms, in the case of `N#C[C@H]1CN(c2ccc(F)cc2F)C(=O)N1c1cncc2ccccc12` (single isomer, unassigned) [Compound 66a] it was below 20 nM; in that of `COc1cc(C(F)(F)F)ncc1N1C[C@@H](C#N)N(c2cncc3ccccc23)C1=O` (single isomer, unassigned) [Compound 107b], above 1000 nM.
Regarding `COc1cc(C(F)(F)F)ccc1N1CC(C#N)N(c2cncc3ccccc23)C1=O` (racemic) [Compound 12, 3-(isoquinolin-4-yl)-1-(2-methoxy-4-(trifluoromethyl)phenyl)-2-oxoimidazolidine-4-carbonitrile], the half-inhibitory concentration (IC50) lay in the range of 20 to 200 nM.
Take `Cc1cc(Cl)cnc1N1C[C@@H](C#N)N(c2cncc3ccccc23)C1=O` (single isomer, unassigned) [Compound 80b]: the concentration for half-maximal inhibition (IC50) is above 1000 nM.
As for `Cc1cc(N2C[C@H](C#N)N(c3cncc4ccccc34)C2=O)cc(C)n1` (single isomer, unassigned) [Compound 102a], the IC50 is below 20 nM.
For the compound `N#C[C@H]1CN(c2ccc(OC(F)(F)F)cc2)C(=O)N1c1cncc2ccccc12` (single isomer, unassigned) [Compound 91a], the concentration for half-maximal inhibition (IC50) was below 20 nM.
Same read-out and setting: the value for `N#C[C@@H]1CN(C2CN(CC(F)(F)F)C2)C(=O)N1c1cncc2ccccc12` (single isomer, unassigned) [Compound 133b] was 20 to 200 nM.
Still for that read-out and setting: the value for `Cc1cc(N2C[C@@H](C#N)N(c3cncc4ccccc34)C2=O)cc(C)n1` (single isomer, unassigned) [Compound 102b] was 200 to 1000 nM.
Same read-out and setting: the value for `CC(C)n1cc(N2C[C@@H](C#N)N(c3cncc4ccccc34)C2=O)cn1` (single isomer, unassigned) [Compound 64b] was above 1000 nM; that for `CC(=O)N1CC(N2C[C@@H](C#N)N(c3cncc4ccccc34)C2=O)C1` (single isomer, unassigned) [Compound 134b] was above 1000 nM; that for `N#C[C@@H]1CN(c2cccc(F)c2)C(=O)N1c1cncc2ccccc12` (single isomer, unassigned) [Compound 76b] was above 1000 nM.
In the case of `N#CC1CN(c2cc(C(F)(F)F)ncc2Cl)C(=O)N1c1cncc2ccccc12` (racemic) [Compound 70-1, 1-(5-chloro-2-(trifluoromethyl)pyridin-4-yl)-3-(isoquinolin-4-yl)-2-oxoimidazolidine-4-carbonitrile], the IC50 lay within 20 to 200 nM.
`N#CC1CN(c2cccc(OC(F)F)c2)C(=O)N1c1cncc2ccccc12` (racemic) [Compound 89, 1-(3-(difluoromethoxy)phenyl)-3-(isoquinolin-4-yl)-2-oxoimidazolidine-4-carbonitrile]: the IC50 is 200 to 1000 nM.
With `N#C[C@H]1CN(C2CN(C3CC3)C2)C(=O)N1c1cncc2ccccc12` (single isomer, unassigned) [Compound 136a], the IC50 is below 20 nM.
With `N#C[C@H]1CN(c2ccc(Cl)cn2)C(=O)N1c1cncc2ccccc12` (single isomer, unassigned) [Compound 41a], the 50% inhibitory concentration (IC50) was below 20 nM.
The same measure, in the same setting: the value for `N#C[C@@H]1CN(c2ccc(C(F)F)nc2)C(=O)N1c1cncc2ccccc12` (single isomer, unassigned) [Compound 75b] was above 1000 nM; that for `N#C[C@@H]1CN(c2ccc(C(F)(F)F)nn2)C(=O)N1c1cncc2ccccc12` (single isomer, unassigned) [Compound 81b] was above 1000 nM.
For the compound `COc1cc(Cl)ccc1N1C[C@H](C#N)N(c2cncc3ccccc23)C1=O` (single isomer, unassigned) [Compound 103a], the concentration for half-maximal inhibition (IC50) is below 20 nM.
The same measure, in the same setting: the value for `COc1ncc(C(F)(F)F)cc1N1C[C@@H](C#N)N(c2cncc3ccccc23)C1=O` (single isomer, unassigned) [Compound 100b] was 200 to 1000 nM.
On the same count and under the same terms, in the case of `N#C[C@@H]1CN(c2ccc(F)c(F)c2)C(=O)N1c1cncc2ccccc12` (single isomer, unassigned) [Compound 72b] it was 200 to 1000 nM; in that of `N#C[C@@H]1CN(C2CC3(CCC3)C2)C(=O)N1c1cncc2ccccc12` (single isomer, unassigned) [Compound 122b], above 1000 nM; in that of `N#Cc1ccc(C(F)(F)F)cc1N1CC(C#N)N(c2cncc3ccccc23)C1=O` (racemic) [Compound 90, 1-(2-cyano-5-(trifluoromethyl)phenyl)-3-(isoquinolin-4-yl)-2-oxoimidazolidine-4-carbonitrile], below 20 nM.
Regarding `N#CC1CN(C2CCCC(F)(F)C2)C(=O)N1c1cncc2ccccc12` (stereo not drawn) [Compound 29, 1-(3,3-difluorocyclohexyl)-3-(isoquinolin-4-yl)-2-oxoimidazolidine-4-carbonitrile], the IC50 lay within 20 to 200 nM.
Turning to `N#C[C@@H]1CN(C2CN(C3CC3)C2)C(=O)N1c1cncc2ccccc12` (single isomer, unassigned) [Compound 136b], the IC50 is above 1000 nM.
Regarding `N#C[C@H]1CN(c2cccc(F)n2)C(=O)N1c1cncc2ccccc12` (single isomer, unassigned) [Compound 61a], the IC50 was in the range of 20 to 200 nM.
Still for that read-out and setting: in the case of `N#C[C@H]1CN(c2ccccc2F)C(=O)N1c1cncc2ccccc12` (single isomer, unassigned) [Compound 56a] it was 20 to 200 nM; in that of `Cn1ccc(N2C[C@H](C#N)N(c3cncc4ccccc34)C2=O)cc1=O` (single isomer, unassigned) [Compound 67a], 20 to 200 nM; in that of `COc1ccc(N2C[C@@H](C#N)N(c3cncc4ccccc34)C2=O)cn1` (single isomer, unassigned) [Compound 112b], above 1000 nM.
With `N#Cc1cnc(C(F)(F)F)cc1N1C[C@@H](C#N)N(c2cncc3ccccc23)C1=O` (single isomer, unassigned) [Compound 117b], the half-maximal inhibitory concentration (IC50) was in the range of 200 to 1000 nM.
Regarding `N#CC1CN(C2CN(C3CC3)C2)C(=O)N1c1cncc2ccccc12` (racemic) [Compound 135, 1-(1-cyclopropylazetidin-3-yl)-3-(isoquinolin-4-yl)-2-oxoimidazolidine-4-carbonitrile], the IC50 fell in the range of 20 to 200 nM.
As to `N#CC1CN(c2cc(F)cc(F)c2)C(=O)N1c1cncc2ccccc12` (racemic) [Compound 110, 1-(3,5-difluorophenyl)-3-(isoquinolin-4-yl)-2-oxoimidazolidine-4-carbonitrile], the IC50 was below 20 nM.
On the same count and under the same terms, the value for `N#C[C@@H]1CN(c2ccc(F)cc2F)C(=O)N1c1cncc2ccccc12` (single isomer, unassigned) [Compound 66b] was above 1000 nM.
